How the values were obtained:
[1] = test system: HFD model in C57BL/6J mice; experiment: HPLC-MS analysis of plasma cholesterol, cholesterol-ester and triglycerides in HFD mice; assay type: in vivo; settings: 50 mg/kg
Source text: Male C57BL/6J mice were purchased from Jackson Laboratory (Bar Harbor, ME, USA). Mice were acclimated for a week before being randomized to receive either a low-fat diet (LFD) or a high-fat diet (HFD) purchased from Research Diets (New Brunswick, NJ, USA). Obesity was induced by the HFD (D12492, with 60% of the adjusted calories derived from fat) for 16 weeks beginning at age of 8 weeks. Age-matched controls were maintained on a LFD (D12450J, matching the sucrose level of D12492). While maintaining the diet, mice under HFD were divided into 4 groups (n=8 per group) and were treated every 2 days by oral gavage for 7 weeks with 100 μl of 11D3 (50 mg/kg), 11U3 (50 mg/kg), or 11U3-2M (50 mg/kg) formulated in a solution of 2:1 of polyethylene glycol (Fisher Scientific, PEG400 #p167-1) and saline, containing 1.5% of octanoic acid (TCI, #00027). Control groups received 100 μl of PEG400/saline/octanoic acid as the vehicle (Veh). LFD mice were divided into 2 groups (n=8 per group) and treated with veh or 11D3 (50 mg/kg) to detect any effect of natural FuFA in LFD. Mice were grouped to start at the same weight mean before starting the treatment. During and before gavage treatment, mice were fed ad libitum and given free access to water. Food intake, water consumption, and mouse weight were monitored every week. At 20 weeks (4 weeks of treatment), a glucose tolerance test (GTT) was performed on all cohorts. After 2 weeks of recovery (22 weeks), a whole-body composition was performed using EchoMRI™-100H. At the end of the 23 weeks study, mice were euthanized with isoflurane followed by laparotomy. The blood was collected, and mice were perfused using 0.9% NaCl. Organs were harvested and snap-frozen in liquid nitrogen gas and stored at −80° C. for further analysis. […]
Plasma TG were analyzed by HPLC-HR-MS/MS using a C8 Luna column (2×150 mm, 5 μm, Phenomenex) with a flow rate of […] and mobile phases of acetonitrile/water (9:1, v/v) 0.1% ammonium acetate (solvent A) and isopropanol/acetonitrile 0.1% ammonium acetate (7:3, v/v) (solvent B). […]

liver gene expression = experiment: RT-qPCR of liver genes; assay type: in vivo, mice; settings: liver RT-qPCR vs HFD+veh
Description: Total RNA was extracted using 50 mg of frozen liver powder. The powder was homogenized in 1 mL of TRIzol solution (Invitrogen, #15-596-026) and 200 μl of chloroform, shaken vigorously for 15 seconds, and incubate at RT for 2-3 min. Lysates were centrifuged at 12000 g for 15 min at 4° C. The upper aqueous phase was transferred in a new ice-cold tube and diluted with 500 μl of ice-cold isopropyl alcohol and incubate at RT for 10 min. Tubes were centrifuged at 12000 g for 10 min at 4° C. The RNA pellet was washed twice using ice-cold 75% ethanol and centrifugation for 5 min at 7500 g at 4° C. The RNA pellet was dissolved in RNase-free H2O and the concentration was measured using Nanodrop 2000 (Thermo Fisher Scientific). […] The RNA sample (1 μg) was subjected to reverse transcription with the iScript cDNA synthesis kit. The TaqMan gene expression assays-on-demand system (Applied Biosystems, Foster City, CA, USA) was used for gene expression assessment by quantitative PCR (qPCR) using GAPDH as housekeeping gene using the comparative Ct method.

liver mitochondria = experiment: Citrate synthase activity and Oroboros analysis of liver mitochondria flux; assay type: in vivo, mice; settings: for increase in citrate synthase activity (CSA) vs veh: 50 mg/kg, 11 weeks
Source text: A second cohort of mice was set up to confirm the effect of 11U3-2M on mitochondria and fatty acid (FA) β-oxidation using Oroboros analysis in the HFD but also in LFD models. Male C57BL/6J diet-induced obesity (C57BL/6J DIO, #380050) and male C57BL/6J diet-induced obesity control mice (C57BL/6J DIO Control, #380056) were purchased from Jackson Laboratory (Bar Harbor, ME, USA) at 15 weeks of age. Mice were continuously feeding either HFD or LFD during transport and upon reception. Mice were fed for 4 more weeks before starting the treatment. While continuing the HFD (n=8 per group) or LFD (n=8 per group), mice were treated with the same formulation as the first cohort using only 11U3-2M (50 mg/kg) or veh for 11 weeks. Mice were fasted for 5 h and received a single intraperitoneal injection of 50 μl of D31-palmitic acid (Cambridge Isotope, 3 μM, #dlm-215-1) in PEG400/Saline (2:1) and 1.5% of octanoic acid solution 2h before sacrifice in order to study FA metabolism. Blood and tissues were harvested and stored as described above.

`CCCc1ccc(CCCCCCCCCC(C)(C)C(=O)O)o1` [11U3-2M, 2,2-Dimethyl-11-(5-propylfuran-2-yl)undecanoic acid] was tested, and the “plasma TC compared to HFD+veh” value [1] was “reduction”, the “plasma TG reduced vs HFD+veh” value [1] was 16% and the “plasma total cholesterol-ester (TCE) reduced vs HFD+veh” value [1] was 33%. For the same compound, the “LncRNA GM10804 decreased” value (liver gene expression) was 3.3 fold, the “LncRNA GM15441 increased” value (liver gene expression) was 320 fold and the PDK4 increase (liver gene expression) was 9.3 fold. For the same compound, the “increase of flux after addition of glutamate, ratio to CSA, vs veh” value (liver mitochondria; HFD mice) was 34%, the “increase of flux normalized to CSA vs veh” value (liver mitochondria; HFD mice) was 38.3% and the “increase in citrate synthase activity (CSA) vs veh” value (liver mitochondria; HFD mice) was 29%. The “flux after addition of succinate (maximum respiration), normalized by CSA” value (liver mitochondria; LFD and HFD mice) was “didn't show any significant difference”, the “increase of flux after addition of glutamate, ratio to CSA, vs veh” value (liver mitochondria; LFD mice) was 23% and the “increase of flux normalized to CSA vs veh” value (liver mitochondria; LFD mice) was 32.5%. The “increase in citrate synthase activity (CSA) vs veh” value (liver mitochondria; LFD mice) was 27%, the “flux with pyruvate as the substrate” value (liver mitochondria; normalized to CSA) was “No significant change” and the “mitochondria flux (Oroboros), not normalized” value (liver mitochondria; substrates palmitoylcarnitine and pyruvate) was “significantly higher flux”.

— patent US20250361217A1, “FATTY ACID COMPOUNDS” (University of Pittsburgh - Of the Commonwealth System of …, priority 2022, published 2025)
